Measurements as given in ChEMBL document CHEMBL1221203, “Modern synthetic efforts toward biologically active terpenes” (Nat Chem Biol, 2007).

System: Human immunodeficiency virus
Assay: Antiviral activity against HIV replication in human H9 cells
Assay type: functional, organism-based
Conditions: Human immunodeficiency virus 1, H9

EC50: 25 nM
SMILES: C[C@]12CCC[C@]3(C(=O)OC1)[C@@H]2CC[C@@]12C[C@@H](CC[C@H]13)[C@](C)(O)C2 [NEOTRIPTERIFORDIN]
